Laboratory results: ChEMBL document CHEMBL1201862, “PubChem BioAssay data set” (2004)
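Method: 48-hour compound exposure of cells in 96-well plates, five concentrations, linear interpolation of endpoints. GI50 is the concentration that inhibits growth by half.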 Calls of active or inactive are those of the source. Cut-off read from the data, not from the text of the source: active = GI50 up to about 1.1 µM and inactive = higher.

Key:
Test in all cases: growth of human tumour cells (NCI), 48 h
OVCAR-3 = test system: OVCAR-3
SF-539 = test system: SF-539
KM-20L2 = test system: KM-20L2
HCC 2998 = test system: HCC 2998
HL-60 = test system: HL-60
XF498 = test system: XF498
SN12C = test system: SN12C
M19-MEL = test system: M19-MEL
SK-MEL-28 = test system: SK-MEL-28
SF-295 = test system: SF-295
RPMI-8226 = test system: RPMI-8226
786-0 = test system: 786-0
DLD-1 = test system: DLD-1
KM12 = test system: KM12
SF-268 = test system: SF-268
SK-MEL-2 = test system: SK-MEL-2
UACC-257 = test system: UACC-257
MOLT-4 = test system: MOLT-4
RXF 631 = test system: RXF 631
LXFL 529 = test system: LXFL 529
HOP-62 = test system: HOP-62
SK-MEL-5 = test system: SK-MEL-5
NCI-H226 = test system: NCI-H226
NCI-H23 = test system: NCI-H23
SNB-78 = test system: SNB-78
UO-31 = test system: UO-31
RXF 393 = test system: RXF 393
A549 = test system: A549
IGROV-1 = test system: IGROV-1
EKVX = test system: EKVX
HT-29 = test system: HT-29
SR = test system: SR
LOX IMVI = test system: LOX IMVI
UACC-62 = test system: UACC-62
CCRF-CEM = test system: CCRF-CEM
OVCAR-8 = test system: OVCAR-8
Malme-3M = test system: Malme-3M
CAKI-1 = test system: CAKI-1
ACHN = test system: ACHN
HCT-15 = test system: HCT-15
COLO 205 = test system: COLO 205
SNB-19 = test system: SNB-19
NCI-H522 = test system: NCI-H522
OVCAR-5 = test system: OVCAR-5
OVCAR-4 = test system: OVCAR-4
HOP-18 = test system: HOP-18
SW-620 = test system: SW-620
NCI-H460 = test system: NCI-H460
M14 = test system: M14
U-251 = test system: U-251
HCT-116 = test system: HCT-116
K562 = test system: K562
HOP-92 = test system: HOP-92
A498 = test system: A498
SK-OV-3 = test system: SK-OV-3
SNB-75 = test system: SNB-75
TK-10 = test system: TK-10
DMS-114 = test system: DMS-114

For CCOC(=O)/C(C#N)=C1\N[C@H](C(=O)OCC)CO1, the GI50 (OVCAR-3) was > 100 µM (inactive), the GI50 (SF-539) was > 100 µM (inactive) and the GI50 (KM-20L2) was > 100 µM (inactive). The GI50 (HCC 2998) was > 100 µM (inactive), the GI50 (HL-60) was > 100 µM (inactive) and the GI50 (XF498) was 31.9 µM (inactive). For the same compound, the GI50 (SN12C) was > 100 µM (inactive), the GI50 (M19-MEL) was > 100 µM (inactive) and the GI50 (SK-MEL-28) was > 100 µM (inactive). The GI50 (SF-295) was > 100 µM (inactive), the GI50 (RPMI-8226) was > 100 µM (inactive) and the GI50 (786-0) was > 100 µM (inactive). For the same compound, the GI50 (DLD-1) was > 100 µM (inactive), the GI50 (KM12) was > 100 µM (inactive) and the GI50 (SF-268) was > 100 µM (inactive). The GI50 (SK-MEL-2) was 30.4 µM (inactive), the GI50 (UACC-257) was > 100 µM (inactive) and the GI50 (MOLT-4) was > 100 µM (inactive). For the same compound, the GI50 (RXF 631) was > 100 µM (inactive), the GI50 (LXFL 529) was > 100 µM (inactive) and the GI50 (HOP-62) was > 100 µM (inactive). The GI50 (SK-MEL-5) was > 100 µM (inactive), the GI50 (NCI-H226) was > 100 µM (inactive) and the GI50 (NCI-H23) was > 100 µM (inactive). The GI50 (SNB-78) was > 100 µM (inactive), the GI50 (UO-31) was > 100 µM (inactive) and the GI50 (RXF 393) was > 100 µM (inactive). The GI50 (A549) was > 100 µM (inactive), the GI50 (IGROV-1) was > 100 µM (inactive) and the GI50 (EKVX) was > 100 µM (inactive). For the same compound, the GI50 (HT-29) was > 100 µM (inactive), the GI50 (SR) was > 100 µM (inactive) and the GI50 (LOX IMVI) was > 100 µM (inactive). For the same compound, the GI50 (UACC-62) was > 100 µM (inactive), the GI50 (CCRF-CEM) was > 100 µM (inactive) and the GI50 (OVCAR-8) was > 100 µM (inactive). For the same compound, the GI50 (Malme-3M) was > 100 µM (inactive), the GI50 (CAKI-1) was > 100 µM (inactive) and the GI50 (ACHN) was > 100 µM (inactive). The GI50 (HCT-15) was over 100 µM, the GI50 (COLO 205) was > 100 µM (inactive) and the GI50 (SNB-19) was > 100 µM (inactive). The GI50 (NCI-H522) was > 100 µM (inactive), the GI50 (OVCAR-5) was > 100 µM (inactive) and the GI50 (OVCAR-4) was > 100 µM (inactive). For the same compound, the GI50 (HOP-18) was > 100 µM (inactive), the GI50 (SW-620) was > 100 µM (inactive) and the GI50 (NCI-H460) was > 100 µM (inactive). For the same compound, the GI50 (M14) was > 100 µM (inactive), the GI50 (U-251) was > 100 µM (inactive) and the GI50 (HCT-116) was > 100 µM (inactive). For the same compound, the GI50 (K562) was > 100 µM (inactive).
For O=C(Nc1nnc(S)[nH]1)C(=O)C(c1cnc2ccc([N+](=O)[O-])cc2n1)[N+](=O)[O-] (centres undefined), the GI50 (OVCAR-3) was > 100 µM (inactive), the GI50 (SF-539) was > 100 µM (inactive) and the GI50 (KM-20L2) was 81.3 µM (inactive). The GI50 (HCC 2998) was > 100 µM (inactive), the GI50 (HL-60) was > 100 µM (inactive) and the GI50 (XF498) was > 100 µM (inactive). The GI50 (HOP-92) was > 100 µM (inactive), the GI50 (SN12C) was > 100 µM (inactive) and the GI50 (M19-MEL) was > 100 µM (inactive). For the same compound, the GI50 (SK-MEL-28) was > 100 µM (inactive), the GI50 (SF-295) was > 100 µM (inactive) and the GI50 (RPMI-8226) was 89.7 µM (inactive). For the same compound, the GI50 (786-0) was > 100 µM (inactive), the GI50 (A498) was > 100 µM (inactive) and the GI50 (DLD-1) was > 100 µM (inactive). For the same compound, the GI50 (KM12) was > 100 µM (inactive), the GI50 (SF-268) was > 100 µM (inactive) and the GI50 (SK-OV-3) was > 100 µM (inactive). For the same compound, the GI50 (UACC-257) was > 100 µM (inactive), the GI50 (MOLT-4) was > 100 µM (inactive) and the GI50 (SNB-75) was > 100 µM (inactive). The GI50 (RXF 631) was > 100 µM (inactive), the GI50 (TK-10) was > 100 µM (inactive) and the GI50 (LXFL 529) was > 100 µM (inactive). For the same compound, the GI50 (HOP-62) was > 100 µM (inactive), the GI50 (DMS-114) was 47 µM (inactive) and the GI50 (SK-MEL-5) was > 100 µM (inactive). For the same compound, the GI50 (NCI-H226) was > 100 µM (inactive), the GI50 (NCI-H23) was > 100 µM (inactive) and the GI50 (SNB-78) was > 100 µM (inactive). The GI50 (UO-31) was > 100 µM (inactive), the GI50 (RXF 393) was > 100 µM (inactive) and the GI50 (A549) was > 100 µM (inactive). For the same compound, the GI50 (IGROV-1) was > 100 µM (inactive), the GI50 (EKVX) was > 100 µM (inactive) and the GI50 (HT-29) was > 100 µM (inactive). The GI50 (SR) was > 100 µM (inactive), the GI50 (LOX IMVI) was > 100 µM (inactive) and the GI50 (UACC-62) was > 100 µM (inactive). For the same compound, the GI50 (CCRF-CEM) was > 100 µM (inactive), the GI50 (OVCAR-8) was > 100 µM (inactive) and the GI50 (Malme-3M) was > 100 µM (inactive). The GI50 (CAKI-1) was > 100 µM (inactive), the GI50 (ACHN) was 94.8 µM (inactive) and the GI50 (HCT-15) was 72.9 µM. For the same compound, the GI50 (COLO 205) was > 100 µM (inactive), the GI50 (SNB-19) was > 100 µM (inactive) and the GI50 (NCI-H522) was 16.2 µM (inactive). The GI50 (OVCAR-5) was > 100 µM (inactive), the GI50 (OVCAR-4) was > 100 µM (inactive) and the GI50 (HOP-18) was > 100 µM (inactive). For the same compound, the GI50 (SW-620) was > 100 µM (inactive), the GI50 (NCI-H460) was > 100 µM (inactive) and the GI50 (M14) was > 100 µM (inactive). The GI50 (U-251) was > 100 µM (inactive), the GI50 (HCT-116) was > 100 µM (inactive) and the GI50 (K562) was > 100 µM (inactive).
